The values below come from patent publication US20210046094A1, “COMPOSITIONS AND METHODS FOR TREATING PAIN” (THE UNITED STATES GOVERNMENT AS REPRESENTED BY THE …, priority 2018, published 2021).

Entries after “also recorded” stand apart in the source; their conditions may differ.

For data set [1], the system named is mice with peripheral nerve injury (PNI) by sciatic nerve cuffing. The data set is described as follows: Sciatic nerve cuff model of neuropathic pain: mechanical allodynia (von Frey filaments). Format: in vivo, mouse. The source says: WT mice underwent unilateral PNI by sciatic nerve cuffing, a widely accepted model of neuropathic pain in mice (Valcin et al. The sciatic nerve cuffing model of neuropathic pain in mice, J Vis Exp, PMID: 25078668 (2014)). Sciatic nerve cuffing reliably induces signs of chronic pain, including sustained mechanical and thermal allodynia. In this model, mechanical allodynia assessed using von Frey filaments develops within 1 week, and is sustained thereafter.
(§1) Sciatic nerve cuff model of neuropathic pain (Valcin et al. The sciatic nerve cuffing model of neuropathic pain in mice, J Vis Exp, PMID: 25078668 (2014)). Surgeries are performed under ketamine/xylazine anesthesia using aseptic techniques. The common branch of the right sciatic nerve is dissected and a 2 mm long section of pre-split PE-20 tubing is placed around it. Shams undergo the same surgery without cuffing.
Mechanical hypersensitivity. The threshold for ipsi- and contralateral hindpaw withdrawal is determined using von Frey filaments (Chaplan et al., Quantitative assessment of tactile allodynia in the rat paw, J Neurosci Methods, 53:55-63, PMID: 7990513(1994)).Mice are placed in clear Plexiglas boxes on an elevated mesh screen.
Calibrated von Frey filaments are applied to the plantar surface of each hindpaw (0.16-15 gm). The “up-down method” (Chaplan et al., Quantitative assessment of tactile allodynia in the rat paw, J Neurosci Methods, 53:55-63, PMID: 7990513(1994)) is used to determine the withdrawal threshold.
MECHANICAL ALLODYNIA. The threshold for ipsi- and contralateral hindpaw withdrawal is determined using von Frey filaments. von Frey filaments are applied to the plantar surface of each hindpaw (0.16-4 gm). The “up-down method (Chaplan et al., Quantitative assessment of tactile allodynia in the rat paw, J Neurosci Methods, 53:55-63, PMID 7990513 (1994))” is used to determine the withdrawal threshold, as in our previous studies (Masri et al., Zona incerta: a role in central pain, J Neurophysiol, 102:181-91, PMID 19403748 (2009); Whitt et al., Pathological activity in mediodorsal thalamus of rats with spinal cord injury pain, J Neurosci, 33:3915-26, PMID 23447602 (2013)). Alternatively, the withdrawal threshold is determined using the Hugo Basile Dynamic Plantar Aesthesiometer (Stoelting).
On day 0, all mice underwent unilateral sciatic nerve cuffing, in which a 2 mm long section of pre-split PE-20 tubing is placed around the right sciatic nerve under sterile conditions (Yalcin et al., The sciatic nerve cuffing model of neuropathic pain in mice, J Vis Exp, PMID 25078668 (2014)).

The test system is the same in data set [2]. Nature of the data set: Sciatic nerve cuff model: cold/thermal allodynia (acetone). Format: in vivo, mouse. The note with it: WT mice. As to the method: as §1
Cold allodynia is assessed using acetone. A 10 μL volume of acetone is propelled via air burst from a 200 μL pipette onto the mid-plantar surface of the hind paw without touching the skin. Time spent elevating/licking/biting/shaking the stimulated paw, up to 15 sec, is measured with a stop watch. Each paw is stimulated 5×, allowing 5 min to elapse between successive paw stimulations.
THERMAL ALLODYNIA is assessed using acetone (Carey et al., Inflammatory and Neuropathic Nociception is Preserved in GPR55 Knockout Mice, Sci Rep, 7:944, PMID 28428628 (2017)). A 10 μL volume of acetone is propelled via air burst from a 200 μL pipette onto the mid-plantar surface of the hind paw without touching the skin. Time spent elevating/licking/biting/shaking the stimulated paw, up to 15 sec, is measured with a stop watch. Each paw is stimulated 5×, allowing 5 min to elapse between successive paw stimulations.

Data set [3] has the same test system. The data set is described as follows: Sciatic nerve cuff model: thermal hyperalgesia (Hargreaves method). Conditions: adult male mice; intrathecal at lumbar 5, 5 ng/hour ×14 days from day +15; tested day +28. Format: in vivo, mouse. As to the method: THERMAL […] is assessed using the Hargreaves method, using a Hargreaves-type apparatus (Ugo Basile Plantar Test Instrument; Stoelting). An unrestrained animal is placed in a Perspex enclosure on the top of glass pane. An infrared generator placed below glass pane is aimed at the plantar surface of the hind paw and the time to withdrawal is recorded automatically via an optic sensor, avoiding experimental bias. Paw-withdrawal latency is calculated as the mean of 3-5 different measurements taken at 15 min intervals. […] On day 0, all mice underwent unilateral sciatic nerve cuffing, in which a 2 mm long section of pre-split PE-20 tubing is placed around the right sciatic nerve under sterile conditions (Yalcin et al., The sciatic nerve cuffing model of neuropathic pain in mice, J Vis Exp, PMID 25078668 (2014)).

Data set [4] shares this test system. The data set is described as follows: Sciatic nerve cuff model: anxiety- and depression-like behaviors (open field, elevated plus maze, tail suspension). Format: in vivo, mouse. Conditions: WT mice; 10 μg/day intraperitoneal starting on day 21 after PNI. How it is done:
ANXIETY-LIKE and DEPRESSION-LIKE BEHAVIORS are assessed only one time, they are administered during the 3 days preceding euthanasia, and the order in which tests are applied is from least stressful to more stressful (as listed below). We follow standard protocols, fully described in Yalcin et al (Yalcin et al., A time-dependent history of mood disorders in a murine model of neuropathic pain, Biol Psychiatry, 70:946-53, PMID 21890110 (2011)). Open field testing is employed for measuring locomotor activity and willingness to explore in mice. A computerized tracking system (ANY-Maze; Stoelting Co.) records animal movements and calculates speed, distance and other parameters. Time spent exploring the center of the open field is inversely related to anxiety. Elevated Plus Maze (Colbourn Instruments). Rodents naturally tend to explore novel environments, but open, well lit, elevated areas are perceived as aversive. This test is widely used in rodent models of anxiety. Tail suspension test (Harvard Apparatus), which measures immobility time, as well as energy and power in motion, is employed as a measure of depression-like behavior in rodents.

The next data set relates to IL-6. Nature of the data set: Quantitative immunohistochemistry of ipsilateral dorsal horn astrocytes after PNI: IL-6. Type of data set: in vivo, mouse. The text has this: (§2) Tissue analysis. Spinal cords are perfusion-fixed (4% PFA), cryoprotected and cryosectioned coronally (7 μm). The dorsal horns of L3-4, which innervates the plantar surface of the mouse hindpaw (Rigaud et al., Species and strain differences in rodent sciatic nerve anatomy: implications for studies of neuropathic pain, Pain, 136:188-201, PMID: 18316160 (2008)), are examined for markers of astrocyte activation (GFAP), Sur1-Trpm4 and IL-6, as well as the chemokines CCL2 and CXCL1. […]
(§3) Tissue analysis. […] The DRG and dorsal horns of L3-4, which innervate the plantar surface of the hindpaw (Rigaud et al., Species and strain differences in rodent sciatic nerve anatomy: implications for studies of neuropathic pain, Pain, 136:188-201, PMID 18316160 (2008)), are examined to quantify changes in, and the time course of those changes, for markers of astrocyte activation (GFAP), microglia/macrophage activation (Iba1, CD68), SUR1-TRPM4, IL-6, the chemokines, CCL2 and CXCL1 and their cognate receptors, CCR2 and CXCR2. Expression of these markers will be quantitatively compared in the different treatment groups using immunohistochemistry and in situ hybridization with cell-specific markers (GFAP, NeuN, Iba1, CD45). Quantitative comparisons will be validated using immunoblot and qPCR. […]

Another data set deals with CCL2. The data set is described as follows: Quantitative immunohistochemistry of ipsilateral dorsal horn astrocytes after PNI: CCL2. Type of data set: in vivo, mouse.
Description: as §2, §3

A further data set deals with CXCL1. The data set is described as follows: Quantitative immunohistochemistry of ipsilateral dorsal horn astrocytes after PNI: CXCL1. Type of data set: in vivo, mouse.
Description: as §2, §3

A further data set relates to pCaMKII. The data set is described as follows: Astrocytic pCaMKII post-PNI (immunolabeling). Type of data set: in vivo, mouse. The note with it: versus vehicle, n=3/group.
Data set [5] is described as follows: Normal mechanical or thermal sensitivity thresholds (non-sensitized condition). Conditions: non-sensitized condition (not shown). Format: in vivo.
Another data set relates to GFAP or SUR1. The data set is described as follows: Intrathecal infusion in uninjured, naive mouse: GFAP and SUR1 expression. Type of data set: in vivo. The text has this: Spinal cord-specific inhibition or downregulation of SUR1 in central glia. […] The anesthetized mouse is mounted in a stereotaxic apparatus, hair is clipped from the dorsal thoracolumbar region, and the skin is prepped with Betadine solution. Using microscopic visualization, a midline incision is made, the paraspinal muscles are dissected off of the spinous processes and laminae. The spinous processes of L6-S1 are removed using a high speed surgical drill, and the dura between them is punctured using a 27-g needle. The infusion cannula of a Brain infusion kit (30 gauge cannula; Brain Infusion kit 3) is advanced stereotactically 1 mm into the thecal sac and is secured to the spine with cement.

The test system of data set [6] is experimental autoimmune encephalomyelitis. The note with it: cited from earlier work.
For data set [7] the following is noted: infusion of an appropriate dose of injectable glibenclamide, non-diabetics; below hypoglycemic threshold; cited from earlier work.
For data set [8] the following is noted: administered via transdermal skin patch, preclinical; cited from earlier work.
Setting [9] is: WT mice, 10 μg/day intraperitoneal starting on day 21 after PNI.
Setting [10] is: Example 1 mice (FIG. 2D), compared to vehicle-treated controls.
The mark [11] stands for this setting: mice from FIG. 10 (10 μg/day IP from day 21), tissues at day 49 (FIG. 6D).

As to `COc1ccc(Cl)cc1C(=O)NCCc1ccc(S(=O)(=O)NC(=O)NC2CCCCC2)cc1` [glibenclamide], the mechanical allodynia entry is given as “significant blunting” in [1] (WT mice, 10 μg IP loading dose plus 40 ng/hr subcutaneous via mini-osmotic pump ×2 weeks, shortly after PNI); “significantly ameliorated; also recorded: gradual but complete reversal” in data set [1] (setting [9]); “completely reversed” in data set [1] (adult male mice, intrathecal at lumbar 5, 5 ng/hour ×14 days from day +15, tested day +28). Moreover, the “duration of drug treatment required for complete reversal of mechanical allodynia” value in data set [1] (setting [9]) is given as 2-3 weeks. For the same compound, the “allodynia symptoms (mechanical allodynia, FIG. 3C)” value in data set [1] (WT mice, treatment beginning on day 18 after PNI, after allodynia was well established) is “significant reversal”. Also, in [2] (10 μg IP loading dose plus 40 ng/hr subcutaneous via mini-osmotic pump ×2 weeks, shortly after PNI), the cold allodynia entry is recorded as “significant blunting”. Moreover, the thermal allodynia entry in [2] (10 μg/day intraperitoneal starting on day 21 after PNI) is recorded as “significantly ameliorated”. Further, in data set [3], the thermal hyperalgesia result is given as “completely reversed”. In data set [4], the “anxiety behaviors (open field and elevated plus maze)” value is “significantly ameliorated”. Further, the “depression-like behaviors (tail suspension)” value in [4] is “significantly ameliorated”. Moreover, the results for the “IL-6 in ipsilateral dorsal horn astrocytes” value in the data set with IL-6 (setting [10]) and in the data set on IL-6 (setting [11]) were “significant reduction” and “significant reductions”, respectively. The results for the “CCL2 in ipsilateral dorsal horn astrocytes” value in the data set on CCL2 (setting [10]) and with CCL2 (setting [11]) were “significant reduction” and “significant reductions”, respectively. Moreover, the “CXCL1 in ipsilateral dorsal horn astrocytes” value in the data set with CXCL1 (setting [10]) is “significant reduction”; in the data set on CXCL1 (setting [11]) it was “significant reductions”. Further, the “astrocytic pCaMKII” value with pCaMKII was “increases”. Further, the “normal mechanical sensitivity thresholds” value in [5] is listed as “does not modify”. Also, in [5], the “normal thermal sensitivity thresholds” value is reported as “does not modify”. Moreover, the “upregulation of GFAP or SUR1” value in the data set on GFAP or SUR1 is given as “does not upregulate GFAP or SUR1”. For the same compound, in data set [6] (CNS inflammatory condition (EAE)), the “entry into spinal cord tissues” value is given as “readily enters spinal cord tissues”. Besides, the inflammation entry in [6] (EAE spinal cord) is on record as “ameliorates inflammation”. For the same compound, the serum levels in data set [7] is on record as less than 45 ng/mL. In data set [8], the plasma levels result is listed as “steady plasma levels of drug that can be maintained below the hypoglycemic threshold”.
